# BindingDB's records for doi:10.1021/jm9705723 (Wayne State University School of Medicine, 1998)
# Key:
# [1] = Inhibitory concentration against human immunodeficiency virus type 1 (HIV-1 strain IIIB RT) reverse transcriptase was determined by triplicate assay at high (~1 pfu/cell) multiplicity of […] (moi)
# [2] = Inhibitory concentration against human immunodeficiency virus type 1 (HIV-1 strain IIIB RT) reverse transcriptase was determined by triplicate assay at low (~0.1 pfu/cell) multiplicity of […] (moi)
SMILES,IC50 [1] [nM],IC50 [2] [nM]
"Nc1nc2c(ncn2/C=C2\CC2CO)c(=O)[nH]1 (stereo unspecified) [2-Amino-9-[2-hydroxymethyl-cycloprop-(E)-ylidenemethyl]-1,9-dihydro-purin-6-one]",> 30000,1900
"Nc1nc2c(ncn2/C=C2/CC2CO)c(=O)[nH]1 (stereo unspecified) [2-Amino-9-[2-hydroxymethyl-cycloprop-(Z)-ylidenemethyl]-1,9-dihydro-purin-6-one]",> 30000,1100
Nc1nc(Cl)c2ncn(/C=C3\CC3CO)c2n1 (stereo unspecified) [{2-[1-(2-Amino-6-chloro-purin-9-yl)-meth-(E)-ylidene]-cyclopropyl}-methanol],–,> 100000
Nc1ncnc2c1ncn2/C=C1\CC1CO (stereo unspecified) [{2-[1-(6-Amino-purin-9-yl)-meth-(E)-ylidene]-cyclopropyl}-methanol],> 100000,14000

# Molecules with a lower IC50 [2], results first:
IC50 [1] [nM],IC50 [2] [nM],SMILES
17,3,"Cc1cn([C@H]2C[C@H](N=[N+]=[N-])[C@@H](CO)O2)c(=O)[nH]c1=O [1-((2R,4S,5S)-4-Azido-5-hydroxymethyl-tetrahydro-furan-2-yl)-5-methyl-1H-pyrimidine-2,4-dione]"
20000,800,Nc1ncnc2c1ncn2/C=C1/CC1CO (stereo unspecified) [[2-(6-Amino-purin-9-ylmethylene)-cyclopropyl]-methanol]
